Where two headings read alike, the source gives them in different places.
Columns and labels:
[1] = Measurement of lipophilicity (octanol / PBS pH 7.4); format: physicochemical; settings: octanol/PBS pH 7.4
Protocol: The logP of [^18F]SDM-16 was determined by a method modified from previously published procedures. Briefly, an aliquot of […] (10 µCi) of the radioligand was added to a 2-mL microtube containing 0.8 mL of octanol and 0.8 mL of 1 × phosphate buffered saline (1 × PBS, pH 7.4). The mixture was vortexed for 30 s and then centrifuged at 2000 g for 2 min. A subsample of the octanol (0.1 mL) and 1 × PBS (0.5 mL) layers was evaluated with a gamma counter. The major portion of the octanol layer (0.5 mL) was diluted with another 0.3 mL of octanol, mixed with a fresh portion of 0.8 mL of PBS, vortexed, centrifuged, and analyzed as described above. This process was repeated until consistent log P values were obtained, with five consecutive equilibration procedures being performed for each logP measurement. Four separate measurements were performed for [^18F]SDM-16 on different days.

[2] = Plasma free fraction (fp) by ultrafiltration; format: in vitro ADME, rhesus monkey; settings: monkey, plasma (separated from spiked whole blood)
Protocol: The unbound fraction of [^18F]SDM-16 in plasma (fp) of rhesus monkey was measured in triplicate using the ultrafiltration method. Briefly, [^18F]SDM-16 solution was added to 3 mL of whole blood. After incubation at ambient temperature for 5 min, the blood sample was centrifuged at 3900 rpm for 5 min. A sample of the supernatant plasma (0.3 mL) was loaded onto the reservoir of a Centrifree® Ultrafiltration device (Merck Millipore Ltd. Tullagreen, Carrigtwohill, Co. Cork, IRELAND) in triplicate and centrifuged at 1228 g for 20 min. The fp value was calculated as the ratio of radioactivity in the filtrate to that in the plasma.

SV2A [3] = target: SV2A (Macaca mulatta, UniProt H9EQH8); settings: previously determined; cited from earlier work
SV2A [4] = settings: 1TC, cited from earlier work
SV2A [5] = test: Brain PET imaging with 1TC kinetic modeling
[6] = Brain PET imaging with 1TC kinetic modeling; settings: rhesus monkey
[7] = Plasma radiometabolite analysis during PET scans; format: in vivo, rhesus monkeys; settings: 30 min p.i.
Protocol: Arterial blood samples were collected during the PET scans to measure the radioactivity in plasma for generation of the metabolite-corrected arterial plasma input function. Plasma radiometabolite analysis was performed using the column-switching method, following a published protocol. Briefly, arterial blood samples were collected at 3-, 8-, 15-, 30-, 60-, 90-, 120-, and 180-min post-injection (p. i.), treated with urea (8 M), filtered, and injected onto a self-packed short column (4.6 × 19 mm) eluting with 1% MeCN in water at a flow rate of 2 mL/min. The sample was then back flushed onto a Gemini-NX column (5 μm, 4.6 mm × 250 mm) eluting with 40% MeCN/60% 0.1 M ammonium formate (pH 6.4) at a flow rate of 1.2 mL/min. The eluent was fraction-collected using an automated spectrum chromatography CF-1 fraction collector. Activity in the whole blood, plasma, filtrated plasma-urea mix, filters, and HPLC fractions were counted with automatic gamma well-counter (Wizard 2, PerkinElmer). The sample recovery rate, extraction efficiency, and HPLC fraction recovery were monitored. The unmetabolized [^18F]SDM-16 parent fraction was determined as the ratio of the sum of radioactivity in fractions containing the parent compound to the total amount of radioactivity collected and fitted with inverted Gamma4 approaches.
[^18F]SDM-16 had higher metabolite-corrected plasma SUV than the other SV2A radiotracers, indicating slower plasma clearance and higher metabolic stability (Fig. 2a). Whole-blood and plasma-input functions were highly consistent between the two animals, with a stable plasma to whole-blood ratio of 0.93 ± 0.13 over the entire 180-min acquisition period (Fig. S1).

human SV2A [8] = target: T1, human SV2A (Homo sapiens, UniProt Q7L0J3); test: biochemical
Protocol: Competition binding assays were performed twice independently using separate assay materials, with 4 technical replicates from each independent assay. […] Duplicate samples of human frontal cortex gray matter were homogenized in PBS buffer (10 mg/mL) for storage at − 80 °C and were diluted to a stock concentration of 4 mg/mL in PBS on the day of the assays. […] Working stocks of brain homogenate (100 µL; final concentration of 2 mg/mL), blocking ligands (20 µL), and radioligand (80 µL; final concentration 2.5 nM) were combined in quadruplicate wells of 96-well plates, sealed, and incubated at room temperature for 90 min on an orbital shaker set to 250 RPM. Reaction plates were filtered, rapidly washed with cold PBS, and dried. Forty microliters of Microscint-20 scintillation cocktail (Perkin-Elmer) was added to each well, and the plate was counted using a Microbeta2 plate reader (Perkin-Elmer). GraphPad Prism was used for curve fitting using the one-site Ki model.

human SV2A [9] = target: T1, human SV2A; set-up: Duplicate samples of human frontal cortex gray matter were homogenized in PBS buffer; from tissue; host or cells: human frontal cortex gray matter homogenate; settings: other SV2A ligands; read-out: Ki; cited from earlier work

T1 sequence (Q7L0J3 whole entry): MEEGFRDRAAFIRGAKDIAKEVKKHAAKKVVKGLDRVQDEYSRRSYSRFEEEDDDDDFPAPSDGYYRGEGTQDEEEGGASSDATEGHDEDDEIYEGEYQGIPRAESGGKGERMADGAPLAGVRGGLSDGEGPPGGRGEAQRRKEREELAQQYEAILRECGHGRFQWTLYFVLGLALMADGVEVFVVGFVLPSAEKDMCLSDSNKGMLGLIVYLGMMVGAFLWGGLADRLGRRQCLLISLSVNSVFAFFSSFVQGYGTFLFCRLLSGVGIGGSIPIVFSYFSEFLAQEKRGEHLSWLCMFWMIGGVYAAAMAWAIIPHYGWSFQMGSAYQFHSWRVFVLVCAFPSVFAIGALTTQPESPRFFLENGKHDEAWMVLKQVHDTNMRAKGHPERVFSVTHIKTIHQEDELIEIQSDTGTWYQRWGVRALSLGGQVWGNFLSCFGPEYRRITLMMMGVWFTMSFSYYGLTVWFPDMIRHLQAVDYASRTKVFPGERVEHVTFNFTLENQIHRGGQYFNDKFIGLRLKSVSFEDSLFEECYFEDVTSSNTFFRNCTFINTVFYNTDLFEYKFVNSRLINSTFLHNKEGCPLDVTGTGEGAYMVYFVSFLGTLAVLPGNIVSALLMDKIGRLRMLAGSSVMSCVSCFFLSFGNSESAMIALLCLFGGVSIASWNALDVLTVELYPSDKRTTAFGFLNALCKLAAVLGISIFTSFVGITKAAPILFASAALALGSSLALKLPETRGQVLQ
SV2A (Macaca mulatta, UniProt H9EQH8), sequence (H9EQH8 1-742): as the sequence (Q7L0J3 whole entry) above, with G64S, I572V counted along it

## [11CH3]c1cnccc1CN1C[C@@H](c2cc(F)c(F)c(F)c2)CC1=O [[^11C]UCB-J]
[1]
  logP: 2.46
[2]
  fraction unbound at 5 min: 0.46
SV2A [3]
  VND: 6.27 mL/cm^3
SV2A [4]; Amygdala
  VT (baseline): 24.4 ± 2.0 mL/cm^3
SV2A [4]; Brainstem
  VT (baseline): 23.5 ± 2.8 mL/cm^3
SV2A [4]; Caudate
  VT (baseline): 44.8 ± 4.6 mL/cm^3
SV2A [4]; Centrum semiovale
  VT (baseline): 13.6 ± 2.9 mL/cm^3
SV2A [4]; Cerebellum
  VT (baseline): 39.5 ± 5.8 mL/cm^3
SV2A [4]; Cingulate cortex
  VT (baseline): 55.6 ± 10.0 mL/cm^3
SV2A [4]; Frontal cortex
  VT (baseline): 55.4 ± 8.2 mL/cm^3
SV2A [4]; Globus pallidus
  VT (baseline): 27.9 ± 3.0 mL/cm^3
SV2A [4]; Hippocampus
  VT (baseline): 34.4 ± 2.8 mL/cm^3
SV2A [4]; Insular cortex
  VT (baseline): 54.6 ± 6.7 mL/cm^3
SV2A [4]; Nucleus accumbens
  VT (baseline): 53.9 ± 9.2 mL/cm^3
SV2A [4]; Occipital cortex
  VT (baseline): 52.9 ± 7.0 mL/cm^3
SV2A [4]; Putamen
  VT (baseline): 45.2 ± 3.0 mL/cm^3
SV2A [4]; Temporal cortex
  VT (baseline): 50.4 ± 6.9 mL/cm^3
SV2A [4]; Thalamus
  VT (baseline): 40.3 ± 6.4 mL/cm^3
SV2A [5]; Amygdala
  BPND, VND method: 2.77 ± 0.06
  BPND, VT(CS) method: 0.85 ± 0.34
  K1: 0.48 ± 0.14 mL/cm^3 per min
SV2A [5]; Anterior cingulate
  BPND, VND method: 6.84 ± 0.18
  BPND, VT(CS) method: 2.70 ± 0.74
  K1: 0.73 ± 0.20 mL/cm^3 per min
SV2A [5]; Brainstem
  BPND, VND method: 2.61 ± 0.44
  BPND, VT(CS) method: 0.76 ± 0.21
  K1: 0.89 ± 0.17 mL/cm^3 per min
SV2A [5]; Caudate
  BPND, VND method: 5.78 ± 0.43
  BPND, VT(CS) method: 2.40 ± 0.72
  K1: 0.75 ± 0.12 mL/cm^3 per min
SV2A [5]; Cerebellum
  BPND, VND method: 4.43 ± 0.83
  BPND, VT(CS) method: 1.95 ± 0.36
  K1: 0.81 ± 0.16 mL/cm^3 per min
SV2A [5]; Cingulate cortex
  BPND, VND method: 7.37 ± 1.18
  BPND, VT(CS) method: 3.17 ± 0.84
SV2A [5]; Frontal cortex
  BPND, VND method: 7.28 ± 1.00
  BPND, VT(CS) method: 3.17 ± 0.84
  K1: 0.66 ± 0.16 mL/cm^3 per min
SV2A [5]; Globus pallidus
  BPND, VND method: 3.31 ± 0.38
  BPND, VT(CS) method: 1.10 ± 0.28
  K1: 0.65 ± 0.11 mL/cm^3 per min
SV2A [5]; Guo plot of baseline VT
  in vivo Kd ratio, Kd(tracer)/Kd([^18F]SDM-16): 0.38
SV2A [5]; Hippocampus
  BPND, VND method: 4.47 ± 0.14
  BPND, VT(CS) method: 1.59 ± 0.39
  K1: 0.61 ± 0.12 mL/cm^3 per min
SV2A [5]; Insular cortex
  BPND, VND method: 7.24 ± 0.73
  BPND, VT(CS) method: 3.12 ± 0.81
  K1: 0.75 ± 0.17 mL/cm^3 per min
SV2A [5]; Mean ± SD over brain regions
  K1: 0.72 ± 0.17 mL/cm^3 per min
SV2A [5]; Nucleus accumbens
  BPND, VND method: 7.16 ± 1.13
  BPND, VT(CS) method: 3.12 ± 0.81
  K1: 0.77 ± 0.17 mL/cm^3 per min
SV2A [5]; Occipital cortex
  BPND, VND method: 7.01 ± 0.88
  BPND, VT(CS) method: 2.97 ± 0.65
  K1: 0.81 ± 0.21 mL/cm^3 per min
SV2A [5]; Putamen
  BPND, VND method: 6.00 ± 0.24
  BPND, VT(CS) method: 2.42 ± 0.63
  K1: 1.03 ± 0.19 mL/cm^3 per min
SV2A [5]; Temporal cortex
  BPND, VND method: 6.57 ± 0.89
  BPND, VT(CS) method: 2.79 ± 0.61
  K1: 0.66 ± 0.14 mL/cm^3 per min
SV2A [5]; Thalamus
  BPND, VND method: 5.21 ± 0.57
  BPND, VT(CS) method: 2.03 ± 0.62
  K1: 0.72 ± 0.24 mL/cm^3 per min
[6]; brain tissue, intravenous
  fraction unbound: 0.073
[7]
  parent fraction in plasma: 40 ± 6%

## Cc1nccn1CN1C[C@H](c2cc(F)cc(F)c2)CC1=O [(S)-SDM-16]
Human SV2A [8]; [^3H]UCB-J, human frontal cortex homogenate
  Ki: 25.5 nM

## Cc1cnccc1CN1C[C@@H](c2cccc([18F])c2)CC1=O [[^18F]SynVesT-2]
[1]
  logP: 2.17
[2]
  fraction unbound at 5 min: 0.41
SV2A [3]
  VND: 2.10 mL/cm^3
[6]; in vivo
  fraction unbound: 0.195

## Cc1cnccc1CN1C[C@@H](c2cc(F)cc(F)c2)CC1=O [SynVesT-1]
Human SV2A [9]
  Ki: 3.1 nM

## Cc1nccn1CN1CC(c2cc(F)cc(F)c2)CC1=O (racemic) [Rac SDM-16, 4-(3,5-difluorophenyl)-1-((2-methyl-1H-imidazol-1-yl)methyl)pyrrolidin-2-one]
Human SV2A [8]
  Ki: 3.7 nM

## Cc1cnccc1CN1C[C@@H](c2cc(F)c(F)c(F)c2)CC1=O [UCB-J]
Human SV2A [9]
  Ki: 2.6 nM
